According to patent US9204653B2, “5-fluoro pyrimidine derivatives” (DOW AGROSCIENCES LLC, priority 2008, dated 2015):
Where two headings read alike, the source gives them in different places.

Test system: Mycosphaerella graminicola; Anamorph: Septoria tritici; Bayer Code SEPTTR
Test: Leaf blotch of wheat, foliar fungicide treatment, one day protectant (1DP) or three day curative (3DC)
Assay type: in vivo, Septoria tritici on wheat plants (variety Yuma)
Conditions: Zymoseptoria tritici; for pest or weed control at 200 ppm / pest or weed control at 50 ppm: % disease control rating
[1] = 24 h, one day protectant (1DP), percent disease control rating, read-out: SETTTR 1DP 25 ppm
[2] = 24 h, one day protectant (1DP), percent disease control rating, read-out: SEPTTR 1DP 100 ppm
[3] = 72 h, three day curative (3DC), percent disease control rating, read-out: SEPTTR 3DC 25 ppm
[4] = 72 h, three day curative (3DC), percent disease control rating, read-out: SEPTTR 3DC 100 ppm
[5] = 24 h, one day protectant, rating of percent disease control, read-out: SETTTR 1DP 25 ppm
[6] = 24 h, one day protectant, rating of percent disease control, read-out: SEPTTR 1DP 100 ppm
[7] = 72 h, three day curative, rating of percent disease control, read-out: SEPTTR 3DC 25 ppm
[8] = 72 h, three day curative, rating of percent disease control, read-out: SEPTTR 3DC 100 ppm
[9] = 24 h, one day protectant (1DP), rating of percent disease control, read-out: SETTTR 1DP 25 ppm
[10] = 24 h, one day protectant (1DP), rating of percent disease control, read-out: SEPTTR 1DP 100 ppm
[11] = 72 h, three day curative (3DC), rating of percent disease control, read-out: SEPTTR 3DC 25 ppm
[12] = 72 h, three day curative (3DC), rating of percent disease control, read-out: SEPTTR 3DC 100 ppm

CCCNC(=S)Nc1nc(OCc2ccc(C)cc2)ncc1F [Compound 48]
pest or weed control at 25 ppm [1]: 76 to 100%
pest or weed control at 100 ppm [2]: 76 to 100%
pest or weed control at 25 ppm [3]: 76 to 100%
pest or weed control at 100 ppm [4]: 76 to 100%

Fc1ccc(COc2ncc(F)c(NCc3cccs3)n2)c(F)c1 [Compound 923]
pest or weed control at 200 ppm (24 h, one day protectant): 76 to 100%

CC(C)(C)Oc1ccc(COc2ncc(F)c(N)n2)cc1 [Compound 95]
pest or weed control at 25 ppm [1]: 76 to 100%
pest or weed control at 100 ppm [2]: 76 to 100%
pest or weed control at 25 ppm [3]: 76 to 100%
pest or weed control at 100 ppm [4]: 76 to 100%

CCCNC(=S)Nc1nc(OCc2cccc(C#N)c2)ncc1F [Compound 706]
pest or weed control at 25 ppm [5]: 0 to 25%
pest or weed control at 100 ppm [6]: 76 to 100%
pest or weed control at 25 ppm [7]: 0 to 25%
pest or weed control at 100 ppm [8]: 51 to 75%

COc1ccccc1COc1ncc(F)c(NC(=O)Cc2ccccc2)n1 [Compound 86]
pest or weed control at 25 ppm [1]: 26 to 50%
pest or weed control at 100 ppm [2]: 51 to 75%
pest or weed control at 25 ppm [3]: 0 to 25%
pest or weed control at 100 ppm [4]: 0 to 25%

CCOCNc1nc(OCc2ccc(F)cc2)ncc1F [Compound 257]
pest or weed control at 25 ppm [9]: 51 to 75%
pest or weed control at 100 ppm [10]: 76 to 100%
pest or weed control at 25 ppm [11]: 51 to 75%
pest or weed control at 100 ppm [12]: 76 to 100%

Fc1cccc(COc2ncc(F)c(NC(=S)Nc3ccccc3F)n2)c1 [Compound 266]
pest or weed control at 25 ppm [9]: 76 to 100%
pest or weed control at 100 ppm [10]: 76 to 100%
pest or weed control at 25 ppm [11]: 0 to 25%
pest or weed control at 100 ppm [12]: 76 to 100%

Nc1nc(OCCc2ccccc2)ncc1F [Compound 936]
pest or weed control at 50 ppm (24 h, one day protectant): 76 to 100%
pest or weed control at 200 ppm (24 h, one day protectant): 76 to 100%

CC(Oc1ncc(F)c(/N=C/N2CCOCC2)n1)c1ccc(F)cc1 (stereo not drawn) [Compound 338]
pest or weed control at 25 ppm [9]: 76 to 100%
pest or weed control at 100 ppm [10]: 76 to 100%
pest or weed control at 25 ppm [11]: 76 to 100%
pest or weed control at 100 ppm [12]: 76 to 100%

CN1CCC/C1=N\c1nc(OCc2ccc(F)cc2)ncc1F [Compound 274]
pest or weed control at 25 ppm [9]: 76 to 100%
pest or weed control at 100 ppm [10]: 76 to 100%
pest or weed control at 25 ppm [11]: 76 to 100%
pest or weed control at 100 ppm [12]: 76 to 100%

Fc1ccc(COc2ncc(F)c(NCc3cccs3)n2)cc1 [Compound 867]
pest or weed control at 50 ppm (24 h, one day protectant): 76 to 100%
pest or weed control at 200 ppm (24 h, one day protectant): 76 to 100%

Cc1ccc(COc2ncc(F)c(/N=C3\CCCCN3C)n2)cc1 [Compound 377]
pest or weed control at 25 ppm [9]: 76 to 100%
pest or weed control at 100 ppm [10]: 76 to 100%
pest or weed control at 25 ppm [11]: 51 to 75%
pest or weed control at 100 ppm [12]: 76 to 100%

CCc1ccccc1COc1ncc(F)c(N)n1 [Compound 286]
pest or weed control at 25 ppm [9]: 76 to 100%
pest or weed control at 100 ppm [10]: 76 to 100%
pest or weed control at 25 ppm [11]: 51 to 75%
pest or weed control at 100 ppm [12]: 76 to 100%

Fc1cnc(OCc2ccc(C(F)(F)F)cc2)nc1NCc1ccc(Cl)cc1 [Compound 811]
pest or weed control at 50 ppm (24 h, one day protectant): 76 to 100%
pest or weed control at 200 ppm (24 h, one day protectant): 76 to 100%

Fc1ccc(COc2ncc(F)c(NC3CC3)n2)cc1 [Compound 927]
pest or weed control at 50 ppm (24 h, one day protectant): 51 to 75%
pest or weed control at 200 ppm (24 h, one day protectant): 76 to 100%

CNN(C)c1nc(OCc2ccc(F)cc2)ncc1F [Compound 397]
pest or weed control at 25 ppm [9]: 0 to 25%
pest or weed control at 100 ppm [10]: 0 to 25%
pest or weed control at 25 ppm [11]: 0 to 25%
pest or weed control at 100 ppm [12]: 0 to 25%

Cc1cc(/C=N/Nc2nc(OCc3ccccc3)ncc2F)n(C)n1 [Compound 152]
pest or weed control at 25 ppm [1]: 26 to 50%
pest or weed control at 100 ppm [2]: 76 to 100%
pest or weed control at 25 ppm [3]: 26 to 50%
pest or weed control at 100 ppm [4]: 76 to 100%

O=C(CCl)Nc1nc(OCc2ccc(F)cc2)ncc1F [Compound 672]
pest or weed control at 25 ppm [5]: 76 to 100%
pest or weed control at 100 ppm [6]: 76 to 100%
pest or weed control at 25 ppm [7]: 76 to 100%
pest or weed control at 100 ppm [8]: 76 to 100%

CN1CCCC/C1=N\c1nc(OCc2cccc(C#N)c2)ncc1F [Compound 261]
pest or weed control at 25 ppm [9]: 51 to 75%
pest or weed control at 100 ppm [10]: 76 to 100%
pest or weed control at 25 ppm [11]: 51 to 75%
pest or weed control at 100 ppm [12]: 76 to 100%

COc1ccc(COc2ncc(F)c(NCOCc3ccccc3)n2)cc1F [Compound 709]
pest or weed control at 25 ppm [5]: 0 to 25%
pest or weed control at 100 ppm [6]: 76 to 100%
pest or weed control at 25 ppm [7]: 0 to 25%
pest or weed control at 100 ppm [8]: 51 to 75%
